Experimental data reported in paper PMC5451472, “Novel Locally Active Estrogens Accelerate Cutaneous Wound Healing-Part 2” (Scientific Reports, 2017).
One block for each compound: values may come before it.

How the values were obtained:
[1] = set-up: method as in PMID 19718805; conditions: cited from earlier work
ERs = target: T1, ERs (Homo sapiens, UniProt P03372); test: ER transactivation assay in ERE-Luc B17 cells (luciferase reporter); assay type: cell-based; conditions: for fold induction at 10 µM / activity on ERs: ERE-Luc B17 cells; for fold induction at 10 µM: 10^-5 M of compound respect to vehicle; for EC50: ERE-Luc B17 cells (MCF-7 clone), 24 h, luciferase activity, sigmoidal dose-response, read-out: EC50 (transactivation potency)
T1 construct: endogenous in cells; host or cells: MCF-7, clone ERE-Luc B17 (only the luciferase reporter is transfected)
T1 sequence (P03372 1-595): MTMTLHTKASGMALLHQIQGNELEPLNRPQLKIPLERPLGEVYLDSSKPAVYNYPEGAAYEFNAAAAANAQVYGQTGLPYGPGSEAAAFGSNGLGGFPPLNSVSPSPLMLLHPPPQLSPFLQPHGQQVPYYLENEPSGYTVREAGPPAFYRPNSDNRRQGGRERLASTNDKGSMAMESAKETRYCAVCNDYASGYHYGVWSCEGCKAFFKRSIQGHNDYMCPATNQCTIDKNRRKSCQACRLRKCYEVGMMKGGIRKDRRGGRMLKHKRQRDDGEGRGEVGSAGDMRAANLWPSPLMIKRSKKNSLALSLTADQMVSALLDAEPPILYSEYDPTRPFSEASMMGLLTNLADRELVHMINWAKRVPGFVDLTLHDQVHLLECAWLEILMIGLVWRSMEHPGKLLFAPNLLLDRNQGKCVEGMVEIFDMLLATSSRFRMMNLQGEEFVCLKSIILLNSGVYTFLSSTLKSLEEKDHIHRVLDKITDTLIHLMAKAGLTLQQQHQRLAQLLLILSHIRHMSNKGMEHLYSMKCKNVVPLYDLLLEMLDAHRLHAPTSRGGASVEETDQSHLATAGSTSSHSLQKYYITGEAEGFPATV
Protocol: The ability of the novel compounds to transcriptionally activate ERs was tested in ERE-Luc B 17 cells, a clone of the breast cancer cell line MCF-7 stably transfected with a reporter constituted by the luciferase gene driven by an estrogen-regulated synthetic promoter previously generated and tested in our laboratories.
Cells were split twice a week by seeding 2 × 10^6 cells in 100 mm diameter Petri (Corning) dishes.
After 24 h cells were rinsed once with PBS before preparing the protein extract for the determination of luciferase content. Each experiment was carried out in duplicate.
Luciferase enzymatic activity was measured in cells or selected tissue homogenates by a luminometer (Glomax™96 microplate luminometer; Promega) using Promega standard luciferin (Beetle Luciferin Potassium Salt) and expressed as Relative Light Units over 10 sec/μg protein (RLU/μg protein). Proteins concentrations were measured by Bradford.
Analysis of transactivation data and calculation of EC50 values were performed by means of sigmoidal dose-response (variable slope) using PRISM5 software (GraphPad Software Inc.).

[2] = system: ER transcriptional activity; test: In vivo BLI time course in wounded ovariectomized ERE-Luc mice, compounds s.c. around the wound; set-up: species or system mouse
Protocol: To study the estrogenic and healing properties of the two compounds, we generated a wound in the ERE-Luc mouse model and tested the activity of the two compounds administered s.c. in the area surrounding the wound as described in the methodology section.
Each group was composed of 4 ERE-Luc females’ mice ovariectomized 2 weeks’ prior the experiment to avoid any interference due to endogenous estrogens. Photon emission was measured in the living animals three times: at 0, 3 and 6 h after s.c. injection.
(§1) ERE-Luc and MITO-Luc mice were ovariectomized at two months of age; the experiment was done 2 weeks after surgery to allow the animals to recover and to decrease the levels of circulating estrogens. The animals were fed ad libitum with a special estrogen free diet (AIN 93 M, Mucedola) (Ciana et al. Endocrinology 2005) and housed in individually ventilated plastic cages within a temperature range of 22–25 °C, relative humidity of 50% ± 10% and under an automatic cycle of 12 h light/dark (lights on at 07:00 am). All animal experimentation was carried out in accordance with the ARRIVE and European Guidelines for Animal Care. All animal experiments were approved by the Italian Ministry of Research and University and controlled by a Departmental panel of experts. For the correct dosage of the compounds, the body weight of the animals (on empty stomach, fasted for at least 12–14 hours) was determined immediately before the treatment.
(§2) Ovariectomy was carried out as previously described. Wound healing was done after shaving by VEET depilatory cream a day before the treatment. The 1 cm full-thickness incisional wound was made through the skin and panniculus carnosus muscle of ovariectomized MITO-luc using a surgical scalpel (blade n°10, carbon steel, Swann-Morton Ltd). Round full-thickness wounds were done by cutting out a section of full-thickness skin (around 9 mm in diameter) using fine scissors on the dorsal skin of the isoflurane-anesthetized animal. For in vivo treatment the compounds were administered onto the subcutaneous area surrounding the wound by multiple subcutaneous injection, immediately after the generation of the wound.
For the semi-quantitative analysis of in vivo photon emission, animals were injected i.p. with 80 mg/kg of luciferin (Beetle Luciferin Potassium Salt; Promega, Madison, WI, USA) 15 min prior the imaging session. For the imaging, mice were anaesthetized using isofluorane (Isofluorane-Vet; Merial, Lyon, France) and kept under anesthesia during the 5 minutes of the session carried out with a CCD camera: both ventral and dorsal acquisition (Xenogen IVIS Lumina System; Caliper, PerkinElmer company). Photon emission in selected body areas was measured using the Living Image Software (Caliper, PerkinElmer company). The analysis was done in ventral view: whole body, thymus, hepatic area, abdomen, limbs, vagina and in dorsal view in wound area and expressed as photon/second/cm2/steradiant (p/s/cm2/sr).

ERE-Luc mice = test: Uterus weight of ERE-Luc mice; assay type: in vivo, mouse; conditions: 20 µg/kg s.c., 6 h after treatment
From the text: The final study aiming at investigating the systemic effect of the NCE was done by measuring the uterus weight of all treated animal as the golden standard for the quantitative measure of estrogenic compounds.

[3] = system: MITO-Luc mice (reporter of mitosis); test: Proliferation in the wound area, in vivo BLI of MITO-Luc mice; set-up: species or system mouse
From the text: Wound healing is a dynamic process consisting of four continuous, overlapping, and precisely programmed phases: hemostasis, inflammation, proliferation and tissue growth (proliferation) and remodeling (maturation). The healing effect of estrogens may be exerted at several levels, certainly the ability of the hormone to accelerate macrophage polarization towards the M2-reparative polarization stage plays a relevant role, however estrogens may also facilitate local cell proliferation and the formation of the granulation tissue, epithelialization, and wound contraction.
The experiments were done with the 1e compound as completely deprived of any activity on the uterus (Fig. 6). […] Photon emission was measured in the wound area at the following time: 0, 24, 48 and 72 hours post-treatment.
as §1
as §2, with “For in vivo treatment the compounds were administered onto the subcutaneous area surrounding the wound by multiple subcutaneous injection, immediately after the generation of the wound.” left out
For the semi-quantitative analysis of in vivo photon emission, animals were injected i.p. with 80 mg/kg of luciferin (Beetle Luciferin Potassium Salt; Promega, Madison, WI, USA) 15 min prior the imaging session. […] Photon emission in selected body areas was measured using the Living Image Software (Caliper, PerkinElmer company). The analysis was done in ventral view: whole body, thymus, hepatic area, abdomen, limbs, vagina and in dorsal view in wound area and expressed as photon/second/cm2/steradiant (p/s/cm2/sr).

MITO-Luc mice [4] = test: Wound area measurement in MITO-Luc mice; assay type: in vivo, mouse; conditions: 20 µg/kg s.c., 72 hours after treatment (vehicle 50%)
Protocol: To investigate to which extent the increased proliferation observed after the pharmacological treatments was functional to the healing process, we measured the size of the wound (Fig. 9a).
as §2

MITO-Luc mice [5] = test: Macrophage count (Iba1 immunohistochemistry) around the wound site; assay type: in vivo, mouse; conditions: 20 µg/kg s.c., 72 hours after treatment
Protocol: To better understand whether the healing effect of 1e could be attributed to its anti-inflammatory action, at the end of in vivo imaging (72 hours after treatments) the tissue surrounding the wound was dissected and subjected immunohistochemical analysis using the pan macrophage marker Iba1. […] This observation confirmed that the estrogenic compounds were able to regulate the immune response at local level.
In particular, the criteria for the assignation of granulations value are: 1 = wound bed partially covered with granulation tissue; 2 = thin granulation over the whole wound bed; 3 = thick granulation over the whole wound bed. Evaluation of macrophages was done through a specific antibody and digital image analysis: 4 µm sections from each wound healing sample were immunostained with primary rabbit […] antibody against Iba1 antigen (Wako; #019-19741) to assess the number of macrophages.
The number of positive cells were counted using the ImageJ analysis program (http://rsb.info.nih.gov/ij/) in 400x microscopic fields selected at the periphery of the wound area.

MITO-Luc mice [6] = test: Granulation tissue histoscore of round full-thickness wound at day 10; assay type: in vivo, mouse; conditions: 20 µg/kg s.c., day 10, round wound, scale 1-3 (vehicle 0.3)
Protocol: The measure of photon emission from the wound area was done for several days after the wounding. 3 days after treatment the bioluminescent signal is highest (Fig. 10 Panel a).
as §2
At the time of euthanasia, the wounds with surrounding healthy tissue were excised, distended on a strip of hard paper and fixed in 10% buffered formalin (pH = 6). […] For histopathological examination 4 µm sections were routinely stained with Hematoxylin-Eosin (HE) and evaluated under a light microscope. The degree of re-epithelialization, the type and amount of granulation tissue and inflammation, which are the main features of wound healing, were scored separately. […]

Structure (SMILES): CCCCC(=O)OCCC#C[C@]1(O)CC[C@H]2[C@@H]3CCc4cc(O)ccc4[C@H]3CC[C@@]21C [2e]
in vivo healing and systemic activity [1]: substantially accelerated healing without systemic activity

fold induction at 10 µM (ERs): 5
Structure (SMILES): CC(C)OC(=O)CCC#C[C@]1(O)CC[C@H]2[C@@H]3CCc4cc(O)ccc4[C@H]3CC[C@@]21C [1d, 3,17β-Hydroxy-17α-(4′carbo-iso-propoxy-1′-butyn-1′-yl)estra-1,3,5-(10)-triene]

Structure (SMILES): C[C@]12CC[C@@H]3c4ccc(O)cc4CC[C@H]3[C@@H]1CC[C@@]2(O)C#CCCCO [6a]
activity on ERs (ERs): did not show any activity

EC50 (ERs): 920 nM | fold induction at 10 µM (ERs): 4.3
Structure (SMILES): COC(=O)CCC#C[C@]1(O)CC[C@H]2[C@@H]3CCc4cc(O)ccc4[C@H]3CC[C@@]21C [1a, 3,17β-Hydroxy-17α-(4′carbomethoxy-1′-butyn-1′-yl)estra-1,3,5-(10)-triene]

EC50 (ERs): 130 nM | fold induction at 10 µM (ERs): 2.5
Structure (SMILES): COC(=O)CCCC#C[C@]1(O)CC[C@H]2[C@@H]3CCc4cc(O)ccc4[C@H]3CC[C@@]21C [1g, 3,17β-Hydroxy-17α-(5′carbomethoxy-1′-butyn-1′-yl)estra-1,3,5-(10)-triene]

Structure (SMILES): CCOC(=O)CCCC#C[C@]1(O)CC[C@H]2[C@@H]3CCc4cc(O)ccc4[C@H]3CC[C@@]21C [1h]
activity on ERs (ERs): did not show any activity

Structure (SMILES): C[C@]12CC[C@@H]3c4ccc(O)cc4CC[C@H]3[C@@H]1CC[C@@H]2O [17β-estradiol, reference compound]
luciferase activity in whole body and body areas ([2]; 20 µg/kg s.c. around wound, ovx mice): induced a significant increase | increase of photon emission in the wound area with respect to vehicle-treated mice ([2]; 20 µg/kg s.c., 6 hours): 40% | uterus weight higher than average weight of controls (ERE-Luc mice): 35% | average uterus weight (ERE-Luc mice; n = 4): 22.8 mg | increase of photon emission from wound ([3]; 20 µg/kg s.c. around wound, 72 h versus time 0, ovx MITO-Luc): 78% | photon emission from the wound area ([3]; 20 µg/kg s.c., 48 hours after administration): significantly increased | wound area reduction (MITO-Luc mice [4]): 60% | number of macrophages (Iba1 positive) in the wound area lower than in controls (MITO-Luc mice [5]): 44% | Score of granulation tissue (fibrosis), histoscore mean (MITO-Luc mice [6]): 2

EC50 (ERs): 2300 nM | fold induction at 10 µM (ERs): 2.6
Structure (SMILES): CCCOC(=O)CCC#C[C@]1(O)CC[C@H]2[C@@H]3CCc4cc(O)ccc4[C@H]3CC[C@@]21C [1c, 3,17β-Hydroxy-17α-(4′carbopropoxy-1′-butyn-1′-yl)estra-1,3,5-(10)-triene]

Structure (SMILES): CCCCCOC(=O)CCC#C[C@]1(O)CC[C@H]2[C@@H]3CCc4cc(O)ccc4[C@H]3CC[C@@]21C [1f]
photon emission in body areas (whole body, thymus, hepatic area, abdomen, limbs, vagina) ([2]; 200 µg/kg s.c. around wound, 3 or 6 h, ovx mice): did not observe increased photon emission in any of the body areas | increase of photon emission in the wound area with respect to time 0 ([2]; 200 µg/kg s.c., 6 hours, trend): 20%

Structure (SMILES): CCOC(=O)CCC#C[C@]1(O)CC[C@H]2[C@@H]3CCc4cc(O)ccc4[C@H]3CC[C@@]21C [1b, 3,17β-Hydroxy-17α-(4′carbethoxy-1′-butyn-1′-yl)estra-1,3,5-(10)-triene]
activity on ERs (ERs): did not show any activity
